Columns and labels:
G207 = assay: Effect of HU and FUdR on G207 replication in HCT8 cells; type: cell-based, herpes simplex virus (HSV) type 1
Method: FIG. 4 depicts the results of experiments showing the effects of FUdR and HU on viral replication. HCT8 cells were infected with 2 pfu of G207 per cell. After adsorption of 1 hour at 37° C. inoculum was removed, cells were washed with PBS, and medium containing 10 nM FUdR or control medium without FUdR was added. At 8 hours pi, infected cells in presence and absence of FUdR were exposed to 1 mM HU. At 36 hours pi cells and supernatant were harvested and lysates were prepared by three cycles of freezing and thawing. Viral titers (A) and β-galactosidase activity (B) of the lysate were determined. All assays were performed in triplicates for each condition (avg ± SEM).
Vero cultures were carried for at least one subculture in E-MEM, 2 mM L-glutamine, 10% FCS. Cultures were plated at a density of 1×10^6 cells per well of 6-well plates and incubated at 37° C. in 5% CO2 in air in a humidified incubator. The following day, cultures were washed 2× with PBS, and serial dilutions of cell lysates (0.8 ml/well) were adsorbed onto triplicate dishes for 4 hours at 37° C. Cell lysates were prepared by 4 freeze-thaw cycles. Following adsorption, inoculum was removed, and cultures were overlaid with agar containing medium. Cultures were stained with neutral red 2 days post-inoculation, and plaque formation was assessed the next day.

[1] = test system: β-galactosidase expression; assay: β-galactosidase activity (lacZ reporter gene in G207) in infected cells; type: cell-based; conditions: HCT8, 2 pfu G207 per cell, 10 nM FUdR, 1 mM HU from 8 hours pi, 36 hours pi
Method: FIG. 2 depicts the results of experiments showing the influence of FUdR on β galactosidase expression following infection with G207. Cells (2×10^4) were plated in 24-well plates, and were infected with G207 at an MOI of 0.01 in presence (10 nM, oblique; 100 nM, black) and absence (white) of FUdR. At day 3 following infection, cells were lysed and total β-galactosidase activity of cell lysates was measured (A). Cell counts for each condition were determined in additional wells by trypan blue exclusion and specific activity was calculated by referring total activity to viable cell number (B). All assays were performed in triplicates (avg ± SEM). For lacZ staining 3×10^5 cells were plated onto 25 cm^2 flasks. Twelve hours later cells were infected with G207 in the presence and absence of FUdR under the same conditions as described above. At day 3 pi, cytospin slides were prepared and stained with X-gal for lacZ expression.
FIG. 4 depicts the results of experiments showing the effects of FUdR and HU on viral replication. […] Viral titers (A) and β-galactosidase activity (B) of the lysate were determined. […]
Activity of β-galactosidase was determined by monitoring the conversion of o-nitrophenyl galactoside (ONPG) to o-nitrophenol and galactose (β-Galactosidase Reporter Assay, Pierce, Rockford, Ill.). […] The reaction rate was determined by spectrophotometric measurement of o-nitrophenol at λ=405 nm. […]

## NC(=O)NO [HU, hydroxyurea]
G207; 1 mM HU and 10 nM FUdR, 36 hours pi
  Viral titer, cells treated with HU and FUdR: 2.1±0.5×10^4 pfu
G207; 1 mM HU from 8 hours pi, 36 hours pi
  Viral titer, cells treated with HU alone: 1.9±0.5×10^4 pfu
G207; 1 mM HU, HCT8 cells
  Suppression of viral replication: 90%
[1]
  Effect on β-galactosidase expression: neither FUdR nor HU had significant effects

Source: patent US20030228281A1, “Use of mutant herpes viruses and anticancer agents in the treatment of cancer” (priority 2000, published 2003)
